The values that follow come from patent US20250288514A1, “SKIN-SOOTHING COMPOSITION” (Amorepacific Corporation, priority 2024, published 2025).

For one data set, the system named is filaggrin protein. The data set can be described thus: Moisturizing factor evaluation: filaggrin protein expression in artificial skin treated with inflammation cocktail. Format: cell-based. The following applies: inflammation cocktail IFN-γ (20 ng/ml)+TNF-α (20 ng/ml), compositions at 50 ppm, FIG. 3.
In another data set the test system is claudin-1 protein. The data set can be described thus: Skin cohesion evaluation: claudin-1 protein expression in artificial skin treated with inflammation cocktail. In kind it is cell-based. The following applies: inflammation cocktail IFN-γ (20 ng/ml)+TNF-α (20 ng/ml), compositions at 50 ppm, FIG. 2.
For a further data set, the system named is PGE2 (Prostaglandin E2). As to the kind of experiment: Skin redness evaluation: amount of PGE2 in artificial skin treated with inflammatory factor. The following applies: TNF-α+IFN-γ (20 ng/ml), FIG. 4. In kind it is cell-based. The text has this: PGE2 is a factor that induces vasodilation and causes skin redness, wherein the smaller amount of PGE2, the less vasodilation induction, thereby suppressing the skin redness, and the skin redness evaluation results are shown in FIG. 4.

A further data set deals with mast cell degranulation. The following applies: stated as known; cited from earlier work.
Data set [1] can be described thus: Dilution of stock in medium (state of the composition). Format: physicochemical. The following applies: 50 ppm in medium, from stock in purified water or DMSO. The text has this: Because PEA was suspended at the 50 ppm, this composition was not used for an experiment.
Data set [2] can be described thus: Cell toxicity of the composition. The following applies: 50 ppm. The procedure:
A composition was prepared by adding 1 g of (−)-epigallocatechin gallate 5 (EGCG) to 100 g of purified water or dimethyl sulfoxide (DMSO) to prepare a stock and diluting the stock to 50 ppm.

In the case of `CCCCCCCCCCCCCCCC(=O)NCCO` [Comparative Example 4, palmitoylethanolamide], the “expression level of filaggrin protein” value in the data set on filaggrin protein is given as “not recovered from the decrease of the protein expression”. In addition, in the data set with claudin-1 protein, the “expression level of claudin-1 protein” value was “not recovered from the decrease in the protein expression of the claudin-1 protein”.
Take `Oc1cc(O)c2c(c1)O[C@H](c1ccc(O)c(O)c1)[C@H](O)C2` [Example 3, epicatechin]: the “expression level of filaggrin protein” value in the data set with filaggrin protein is on record as “recovered from the decrease of the protein expression”. Also, in the data set with claudin-1 protein, the “expression level of claudin-1 protein” value is “recovered from the decrease in the protein expression of the claudin-1 protein”. Moreover, the “amount of PGE2” value in the data set on PGE2 (Prostaglandin E2) was “the amount of PGE2 was suppressed”.
`CCCCCCCCCCCCCCCC(=O)NCCO` [PEA, palmitoylethanolamide]: the “effect of suppressing the mast cell degranulation” value in the data set with mast cell degranulation is recorded as “no effect of suppressing the mast cell degranulation”. For the same compound, the “state on dilution in medium” value in data set [1] was “suspended”.
As to “(−)-epigallocatechin gallate [Comparative Example 7]”, the “expression level of filaggrin protein” value in the data set on filaggrin protein is on record as “not recovered from the decrease of the protein expression”. Moreover, the “expression level of claudin-1 protein” value with claudin-1 protein is “not recovered from the decrease in the protein expression of the claudin-1 protein”.
Regarding (−)-epigallocatechin gallate [EGCG], the cell toxicity entry in data set [2] is “cell toxicity”.
